Test results taken from patent publication US7288564B2, “Indole derivatives” (Glaxo Group Limited, priority 2000, dated 2007).

Columns and labels:
[1] = target: T1, human EP4 receptor (Homo sapiens, UniProt P35408); assay: Human EP4 Scintillation Proximity Assay (radioligand binding); set-up: expressed in transfected cells; host or cells: CHO cells infected with Semliki Forest Virus (SFV-1) particles; membranes prepared; details: membranes of CHO cells expressing human EP4; 1.25 nM [3H]-prostaglandin E2; Cheng-Prusoff; read-out: pKi at EP4 receptors (converted)
Procedure: Quantification of radioligand binding by scintillation proximity assay (SPA) is a long-established principle. Briefly, the affinity of compounds for a receptor is assessed by the specific competition between known quantities of radiolabelled ligand compound for that receptor. Increasing concentrations of compound reduce the amount of radiolabel that binds to the receptor. This gives rise to a diminishing scintillation signal from SPA beads coated with membranes that bear the receptor. The signal may be detected with a suitable scintillation counter and the data generated may be analysed with suitable curve-fitting software.
The human EP4 SPA assay (hereafter referred to as ‘the assay’) utilises membranes prepared from Chinese Hamster Ovary (CHO cells) infected with Semliki Forest Virus (SFV). Genetically engineered SFV-1 viral particles containing the genetic sequence of the human EP4 receptor were used to infect CHO cells resulting in expression of th receptor protein in cellular membranes.
Cells washed free of media are homogenised in a pH-buffered medium containing peptidase inhibitors. A suitable buffer is of the following composition: 50 mM HEPES, 1 mM EDTA, 25 μg/ml bacitracin, 100 μM leupeptin, 1 mM PMSF, 2 μM Pepstatin A, pH adjusted to 7.4 with KOH. Following removal of cell debris by a low-speed centrifugation, a pellet of membranes is prepared by a high-speed (48000 g) centrifugation of the resulting supernatant. Membrane suspensions such as that described may be stored at −80° C. until used.
For assay, membranes expressing human EP4 receptors are diluted in a pH-buffered medium and mixed with SPA beads coated with a suitable substance to facilitate the adhesion of membranes to the beads. The concentrations of membrane protein and SPA beads chosen should result in SPA binding signal of at least 300 corrected counts per minute (CCPM) when tritiated radioligand at a concentration close to its Kd (affinity value) is combined with the mixture. Non-specific binding (nsb) may be determined by competition between the radiolabelled ligand and a saturating concentration of unlabelled ligand. In order to quantify the affinity of EP4 receptor ligands, compounds are diluted in a stepwise manner across the wells of a 96-well plate. Radioligand, compound, and unlabelled ligand are then added to a 96-well plate suitable for the measurement of SPA binding signals prior to the addition of bead/membrane mixture to initiate the binding reaction. Equilibrium may be achieved by incubation at room temperature for 120 minutes prior to scintillation counting. The data so generated may be analysed by means of a computerised curve-fitting routine in order to quantify the concentration of compound that displaces 50% of the specific radioligand binding (IC50). The affinity (pKi) of the compound may be calculated from the IC50 by application of the Cheng-Prusoff correction. Suitable reagents and protocols are: reaction buffer containing 50 mM HEPES, 10 mM MgCl2, pH adjusted to 7.4 with KOH; SPA beads coated with wheatgerm agglutinin; 1.25 nM [^3H]-prostaglandin E2 as radioligand; 10 μM prostaglandin E2 as unlabelled ligand; a three-fold dilution series of compound starting at 10 μM and ending at 0.3 nM is adequate.

[2] = target: T1, human EP4 receptor; assay: [125I]cAMP Scintillation Proximity Assay (cAMP assay), EP4 antagonism; assay type: cell-based; set-up: host or cells: HEK-293 cells; details: HEK-293 cells expressing recombinant human EP4; method of Arunlakshana and Schild; read-out: pKb at EP4 receptors (converted)
Procedure: The cAMP assay utilises HEK-293 cells expressing the recombinant human EP4 receptor, obtained from Receptor Biology, Inc. Beltsville, Md., USA. The cells were cultured in Dulbecco's Modified Eagle Medium—HAM F12 mix (DMEM-F12), containing 10% heat inactivated-foetal bovine serum (FBS) and 2 mM L-glutamine. The cells were either passaged into fresh medium or used in an assay once 90% confluency as determined visually had been achieved.
The cells were harvested by treatment with Versene, re-suspended in fresh culture medium and plated out to yield approximately 10,000 cells per well of a 96-well plate for overnight culture in culture medium additionally supplemented with 3 μM indomethacin. For assay, the culture medium was replaced with assay medium (DMEM-F12 containing 300 μM isobutylmethylxanthine (IBMX) and 3 μM indomethacin) and incubated for 30 minutes. Following this, antagonist was then added at various concentrations such that an entire agonist concentration-effect curve could be obtained in the presence of a single concentration of the antagonist. […] The amount of cAMP in each well was then determined by [^125I]cAMP scintillation proximity assay using a proprietary kit, obtained from Amersham, Buckinghamshire, UK, and according to the manufacturer's instructions.
Data from cAMP assays were expressed as pmol cAMP per well. […]

T1 sequence (P35408 whole entry): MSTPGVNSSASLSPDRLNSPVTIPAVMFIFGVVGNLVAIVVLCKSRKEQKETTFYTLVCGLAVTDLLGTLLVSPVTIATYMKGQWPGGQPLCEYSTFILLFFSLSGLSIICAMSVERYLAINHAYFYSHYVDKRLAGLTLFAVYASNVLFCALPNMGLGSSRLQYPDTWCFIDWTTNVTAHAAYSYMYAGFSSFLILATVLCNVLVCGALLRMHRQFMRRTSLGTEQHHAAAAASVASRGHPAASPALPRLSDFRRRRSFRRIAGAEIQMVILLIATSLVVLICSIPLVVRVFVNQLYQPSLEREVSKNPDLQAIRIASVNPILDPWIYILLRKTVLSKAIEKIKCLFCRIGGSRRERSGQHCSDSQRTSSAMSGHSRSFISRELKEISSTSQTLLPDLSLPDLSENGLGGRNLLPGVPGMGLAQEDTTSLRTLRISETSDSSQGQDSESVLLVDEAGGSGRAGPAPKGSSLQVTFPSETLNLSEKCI

Compound | Ki [1] [nM] | Kb [2] [nM]
COc1ccc2[nH]c(C)c(CC(=O)Nc3ccccc3C(=O)O)c2c1 [Example 13, 2-{[(5-methoxy-2-methyl-1H-indol-3-yl)acetyl]amino}benzoic acid] | ≤ 100 | 
Cc1ccc(C(=O)O)c(NC(=O)Cc2c(-c3ccccc3)[nH]c3ccccc23)c1 [Example 9, 4-methyl-2-{[(2-phenyl-1H-indol-3-yl)acetyl]amino}benzoic acid] | ≤ 100 | 
COc1ccc2[nH]c(C)c(CC(=O)Nc3cc(C)ccc3C(=O)O)c2c1 [Example 1, 2-{[(5-methoxy-2-methyl-1H-indol-3-yl)acetyl]amino}-4-methylbenzoic acid] | ≤ 100 | < 10
CCc1ccc(C(=O)O)c(NC(=O)Cc2c(C)[nH]c3ccc(OC)cc23)c1 [Example 26, 4-ethyl-2-{[(5-methoxy-2-methyl-1H-indol-3-yl)acetyl]amino}benzoic acid] | ≤ 100 | 
COc1cc2[nH]c(C)c(CC(=O)Nc3cc(C)ccc3C(=O)O)c2cc1OC [Example 20, 2-{[(5,6-dimethoxy-2-methyl-1H-indol-3-yl)acetyl]amino}-4-methylbenzoic acid] | ≤ 100 | 
COc1ccc2[nH]c(C)c(CC(=O)Nc3cc(F)ccc3C(=O)O)c2c1 [Example 10, 4-fluoro-2-{[(5-methoxy-2-methyl-1H-indol-3-yl)acetyl]amino}benzoic acid] | ≤ 100 | 
Cc1ccc(C(=O)O)c(NC(=O)Cc2c(C)[nH]c3ccccc23)c1 [Example 3, 4-methyl-2-{[(2-methyl-1H-indol-3-yl)acetyl]amino}benzoic acid] | ≤ 100 | 
COc1ccc2[nH]c(C)c(CC(=O)Nc3cc(Cl)ccc3C(=O)O)c2c1 [Example 11, 4-chloro-2-{[(5-methoxy-2-methyl-1H-indol-3-yl)acetyl]amino}benzoic acid] | ≤ 100 | 
COc1ccc2[nH]c(C)c(CC(=O)Nc3cc(C(F)(F)F)ccc3C(=O)O)c2c1 [Example 17, 2-{[(5-methoxy-2-methyl-1H-indol-3-yl)acetyl]amino}-4-(trifluoromethyl)benzoic acid] | ≤ 100 | 
COc1ccc2[nH]c(C)c(CC(=O)Nc3cc([N+](=O)[O-])ccc3C(=O)O)c2c1 [Example 12, 2-{[(5-methoxy-2-methyl-1H-indol-3-yl)acetyl]amino}-4-nitrobenzoic acid] | ≤ 100 | 

The remaining lines, values ahead:

Ki [1] [nM] | Kb [2] [nM] | Compound
≤ 100 |  | COc1ccc2[nH]cc(CC(=O)Nc3cc(C)ccc3C(=O)O)c2c1 [Example 7, 2-{[(5-methoxy-1H-indol-3-yl)acetyl]amino}-4-methylbenzoic acid]
≤ 100 |  | Cc1ccc(C(=O)O)c(NC(=O)Cc2c(C)[nH]c3ccc(Cl)cc23)c1 [Example 21, 2-{[(5-chloro-2-methyl-1H-indol-3-yl)acetyl]amino}-4-methylbenzoic acid]
≤ 100 |  | Cc1ccc(C(=O)O)c(NC(=O)Cc2c[nH]c3ccccc23)c1 [Example 2, 2-[(1H-indol-3-ylacetyl)amino]-4-methylbenzoic acid]
≤ 100 |  | Cc1ccc(C(=O)O)c(NC(=O)Cc2c[nH]c3ccc(Br)cc23)c1 [Example 6, 2-{[(5-bromo-1H-indol-3-yl)acetyl]amino}-4-methylbenzoic acid]
≤ 100 |  | Cc1ccc(C(=O)O)c(NC(=O)Cc2c[nH]c3ccc(F)cc23)c1 [Example 4, 2-{[(5-fluoro-1H-indol-3-yl)acetyl]amino}-4-methylbenzoic acid]
